According to patent US10668067B2, “Pyridine sulfonamides” (AMGEN INC., priority 2016, dated 2020):
pIC50: −log10 of the molar value.

These molecules were tested against human Nav1.7 (Homo sapiens (Human), UniProt Q15858) (assay: Nav 1.7 In Vitro PX Assay (PatchXpress whole cell voltage clamp)). Details: in-vitro Nav 1.7 PX data.
Sequence of human Nav1.7 (Q15858 whole entry): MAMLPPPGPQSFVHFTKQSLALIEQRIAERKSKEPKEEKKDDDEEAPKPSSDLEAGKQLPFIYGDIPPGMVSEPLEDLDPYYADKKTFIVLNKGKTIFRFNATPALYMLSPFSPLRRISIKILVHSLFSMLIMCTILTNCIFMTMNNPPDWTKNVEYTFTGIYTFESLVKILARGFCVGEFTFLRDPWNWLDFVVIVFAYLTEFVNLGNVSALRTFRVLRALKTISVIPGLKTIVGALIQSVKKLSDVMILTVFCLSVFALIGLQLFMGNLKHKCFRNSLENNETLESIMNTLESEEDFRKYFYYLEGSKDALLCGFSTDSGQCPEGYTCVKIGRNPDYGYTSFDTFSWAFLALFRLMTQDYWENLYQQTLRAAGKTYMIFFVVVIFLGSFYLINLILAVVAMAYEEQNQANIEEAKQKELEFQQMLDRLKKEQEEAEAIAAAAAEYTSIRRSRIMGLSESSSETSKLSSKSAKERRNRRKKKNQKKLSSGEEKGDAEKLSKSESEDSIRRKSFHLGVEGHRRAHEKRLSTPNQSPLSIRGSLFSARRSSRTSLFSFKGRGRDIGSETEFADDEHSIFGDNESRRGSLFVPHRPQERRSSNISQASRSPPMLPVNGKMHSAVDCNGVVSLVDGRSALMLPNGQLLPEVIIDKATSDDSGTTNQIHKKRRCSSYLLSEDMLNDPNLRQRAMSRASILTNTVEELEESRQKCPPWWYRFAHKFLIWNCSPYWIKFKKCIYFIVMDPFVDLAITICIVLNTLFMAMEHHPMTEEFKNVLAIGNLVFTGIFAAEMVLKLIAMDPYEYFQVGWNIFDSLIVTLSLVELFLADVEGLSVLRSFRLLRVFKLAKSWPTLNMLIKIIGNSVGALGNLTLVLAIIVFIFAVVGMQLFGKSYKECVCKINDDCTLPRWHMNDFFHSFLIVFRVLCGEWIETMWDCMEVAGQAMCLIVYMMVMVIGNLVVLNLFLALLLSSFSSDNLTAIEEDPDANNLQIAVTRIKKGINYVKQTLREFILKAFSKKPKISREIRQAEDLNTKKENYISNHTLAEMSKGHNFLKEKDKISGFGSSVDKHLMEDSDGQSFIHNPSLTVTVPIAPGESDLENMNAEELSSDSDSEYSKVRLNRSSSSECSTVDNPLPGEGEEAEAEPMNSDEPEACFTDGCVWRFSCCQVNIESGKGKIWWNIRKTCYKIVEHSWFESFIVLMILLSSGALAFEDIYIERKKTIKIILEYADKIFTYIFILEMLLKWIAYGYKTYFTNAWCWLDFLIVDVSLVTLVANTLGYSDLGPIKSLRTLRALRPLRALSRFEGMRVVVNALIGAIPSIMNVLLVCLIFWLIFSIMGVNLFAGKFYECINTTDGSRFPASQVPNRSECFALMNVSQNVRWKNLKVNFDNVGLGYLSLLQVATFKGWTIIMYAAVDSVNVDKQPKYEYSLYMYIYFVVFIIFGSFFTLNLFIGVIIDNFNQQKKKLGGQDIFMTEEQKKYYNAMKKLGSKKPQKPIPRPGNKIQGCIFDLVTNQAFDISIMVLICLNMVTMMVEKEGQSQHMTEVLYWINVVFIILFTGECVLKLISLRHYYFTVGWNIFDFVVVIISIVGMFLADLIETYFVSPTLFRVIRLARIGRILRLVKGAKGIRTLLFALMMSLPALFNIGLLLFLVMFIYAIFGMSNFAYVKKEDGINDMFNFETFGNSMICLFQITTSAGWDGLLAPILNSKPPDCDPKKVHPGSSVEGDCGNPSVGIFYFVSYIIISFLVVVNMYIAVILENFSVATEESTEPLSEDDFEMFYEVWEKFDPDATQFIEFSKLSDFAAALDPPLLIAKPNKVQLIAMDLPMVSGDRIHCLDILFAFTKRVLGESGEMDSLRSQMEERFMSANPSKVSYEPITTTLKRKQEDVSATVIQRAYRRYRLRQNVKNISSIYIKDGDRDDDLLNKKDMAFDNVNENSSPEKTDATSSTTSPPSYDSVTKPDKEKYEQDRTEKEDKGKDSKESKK
Assay type: cell-based
Protocol: HEK 293 cells stably transfected with human Nav1.7 were recorded in whole cell voltage clamp mode with the PatchXpress automated electrophysiology system (Molecular Devices, LLC, Sunnyvale, Calif.). Compound effects were measured on a partially inactivated state of the sodium channel. Cells were clamped to a holding potential yielding 20 to 50% inactivation. To elicit sodium current, channels were activated by pulsing to −10 mV for 20 msec. This voltage protocol was repeated at a rate of 0.1 Hz throughout the experiment. A single concentration of test compound was applied to cells for a duration of 3 minutes. Peak sodium current was measured at the end of the compound addition period to determine percent inhibition. Three to five cells were tested per concentration, and IC50 curves were fitted to percent inhibition as a function of concentration.
With `CNC(=O)N(c1ccc(S(=O)(=O)Nc2ccon2)cn1)c1cc(F)c(-c2ccc(Cl)c(C)c2)cc1OC` [Example 1-1, 6-((4′-chloro-2-fluoro-5-methoxy-3′-methyl-4-biphenylyl)(methylcarbamoyl)amino)-N-3-isoxazolyl-3-pyridinesulfonamide] the pIC50 was 7.24.
`CNC(=O)N(c1ccc(S(=O)(=O)Nc2cccnn2)cn1)c1cc(F)c(-c2ccc(Cl)c(C)c2)cc1OC` [Example 1-2, 6-((4′-chloro-2-fluoro-5-methoxy-3′-methyl-4-biphenylyl)(methylcarbamoyl)amino)-N-3-pyridazinyl-3-pyridinesulfonamide] showed a pIC50 of 6.97.
Molecule `CNC(=O)N(c1ccc(S(=O)(=O)Nc2cccnn2)cn1)c1cc(F)c(-c2cccc(C(F)(F)F)c2)cc1OC` [Example 1-3, 6-((2-fluoro-5-methoxy-3′-(trifluoromethyl)-4-biphenylyl)(methylcarbamoyl)amino)-N-3-pyridazinyl-3-pyridinesulfonamide] has a pIC50 of 7.40.
In the case of `CNC(=O)N(c1ccc(S(=O)(=O)Nc2ccon2)cn1)c1cc(F)c(-c2cccc(C(F)(F)F)c2)cc1OC` [Example 1-4, 6-((2-fluoro-5-methoxy-3′-(trifluoromethyl)-4-biphenylyl)(methylcarbamoyl)amino)-N-3-isoxazolyl-3-pyridinesulfonamide], the pIC50 was 7.48.
`CNC(=O)N(c1ccc(S(=O)(=O)Nc2ccon2)cn1)c1cc(F)c(-c2cc(F)cc(Cl)c2)cc1OC` [Example 1-5, 6-((3′-chloro-2,5′-difluoro-5-methoxy-4-biphenylyl)(methylcarbamoyl)amino)-N-3-isoxazolyl-3-pyridinesulfonamide] showed a pIC50 of 7.04.
With `CNC(=O)N(c1ccc(S(=O)(=O)Nc2ccon2)cn1)c1cc(F)c(-c2cc(Cl)cc(OC)c2)cc1OC` [Example 1-6, 6-((3′-chloro-2-fluoro-5,5′-dimethoxy-4-biphenylyl)(methylcarbamoyl)amino)-N-3-isoxazolyl-3-pyridinesulfonamide] the pIC50 was 7.29.
`CNC(=O)N(c1ccc(S(=O)(=O)Nc2ccon2)cn1)c1cc(F)c(-c2cc(OC)cc(OC(F)(F)F)c2)cc1OC` [Example 1-7, 6-((2-fluoro-3′,5-dimethoxy-5′-(trifluoromethoxy)-4-biphenylyl)(methylcarbamoyl)amino)-N-3-isoxazolyl-3-pyridinesulfonamide] was tested, and the pIC50 was 7.74.
In the case of `CNC(=O)N(c1ccc(S(=O)(=O)Nc2ccon2)cn1)c1cc(F)c(-c2cccc(OC)c2)cc1OC` [Example 1-8, 6-((2-fluoro-3′,5-dimethoxy-4-biphenylyl)(methylcarbamoyl)amino)-N-3-isoxazolyl-3-pyridinesulfonamide], the pIC50 was 6.69.
With `CNC(=O)N(c1ccc(S(=O)(=O)Nc2ccon2)cn1)c1cc(F)c(-c2cc(OC)cc(C(F)(F)F)c2)cc1OC` [Example 1-9, 6-((2-fluoro-3′,5-dimethoxy-5′-(trifluoromethyl)-4-biphenylyl)(methylcarbamoyl)amino)-N-3-isoxazolyl-3-pyridinesulfonamide] the pIC50 was 7.74.
`CNC(=O)N(c1ccc(S(=O)(=O)Nc2ccon2)cn1)c1cc(F)c(-c2ccc(Cl)c(Cl)c2)cc1OC` [Example 1-10, 6-((3′,4′-dichloro-2-fluoro-5-methoxy-4-biphenylyl)(methylcarbamoyl)amino)-N-3-isoxazolyl-3-pyridinesulfonamide] gave a pIC50 of 8.05.
Molecule `CNC(=O)N(c1ccc(S(=O)(=O)Nc2ccon2)cn1)c1cc(F)c(-c2ccc(Cl)c(C(F)(F)F)c2)cc1OC` [Example 1-11, 6-((4′-chloro-2-fluoro-5-methoxy-3′-(trifluoromethyl)-4-biphenylyl)(methylcarbamoyl)amino)-N-3-isoxazolyl-3-pyridinesulfonamide] has a pIC50 of 7.85.
`CNC(=O)N(c1ccc(S(=O)(=O)Nc2ccon2)cn1)c1cc(F)c(-c2cccc(OCC(F)(F)F)c2)cc1OC` [Example 1-12, 6-((2-fluoro-5-methoxy-3′-(2,2,2-trifluoroethoxy)-4-biphenylyl)(methylcarbamoyl)amino)-N-3-isoxazolyl-3-pyridinesulfonamide] gave a pIC50 of 7.07.
`CNC(=O)N(c1ccc(S(=O)(=O)Nc2ccon2)cn1)c1cc(F)c(-c2cccc(C3CC3)c2)cc1OC` [Example 1-13, 6-((3′-cyclopropyl-2-fluoro-5-methoxy-4-biphenylyl)(methylcarbamoyl)amino)-N-3-isoxazolyl-3-pyridinesulfonamide] gave a pIC50 of 7.34.
For `CNC(=O)N(c1ccc(S(=O)(=O)Nc2ccon2)cn1)c1cc(F)c(-c2cccc(OC(F)(F)F)c2)cc1OC` [Example 1-14, 6-((2-fluoro-5-methoxy-3′-(trifluoromethoxy)-4-biphenylyl)(methylcarbamoyl)amino)-N-3-isoxazolyl-3-pyridinesulfonamide], the pIC50 was 7.77.
`CNC(=O)N(c1ccc(S(=O)(=O)Nc2ccon2)cn1)c1cc(F)c(-c2ccc(C)c(F)c2)cc1OC` [Example 1-15, 6-((2,3′-difluoro-5-methoxy-4′-methyl-4-biphenylyl)(methylcarbamoyl)amino)-N-3-isoxazolyl-3-pyridinesulfonamide] showed a pIC50 of 6.91.
Work on `CNC(=O)N(c1ccc(S(=O)(=O)Nc2ccon2)cn1)c1cc(F)c(-c2ccc(F)c(C)c2)cc1OC` [Example 1-16, 6-((2,4′-difluoro-5-methoxy-3′-methyl-4-biphenylyl)(methylcarbamoyl)amino)-N-3-isoxazolyl-3-pyridinesulfonamide] yielded a pIC50 of 7.21.
With `CNC(=O)N(c1ccc(S(=O)(=O)Nc2ccon2)cn1)c1cc(F)c(-c2ccc(C)c(Cl)c2)cc1OC` [Example 1-17, 6-((3′-chloro-2-fluoro-5-methoxy-4′-methyl-4-biphenylyl)(methylcarbamoyl)amino)-N-3-isoxazolyl-3-pyridinesulfonamide] the pIC50 was 7.51.
`CNC(=O)N(c1ccc(S(=O)(=O)Nc2ccon2)cn1)c1cc(F)c(-c2cc(C)cc(F)c2)cc1OC` [Example 1-18, 6-((2,3′-difluoro-5-methoxy-5′-methyl-4-biphenylyl)(methylcarbamoyl)amino)-N-3-isoxazolyl-3-pyridinesulfonamide] was tested, and the pIC50 was 6.84.
For `CNC(=O)N(c1ccc(S(=O)(=O)Nc2ccon2)cn1)c1cc(F)c(-c2cc(C)cc(Cl)c2)cc1OC` [Example 1-19, 6-((3′-chloro-2-fluoro-5-methoxy-5′-methyl-4-biphenylyl)(methylcarbamoyl)amino)-N-3-isoxazolyl-3-pyridinesulfonamide], the pIC50 was 7.33.
`CNC(=O)N(c1ccc(S(=O)(=O)Nc2ccon2)cn1)c1cc(F)c(-c2ccc(Cl)c(F)c2)cc1OC` [Example 1-20, 6-((4′-chloro-2,3′-difluoro-5-methoxy-4-biphenylyl)(methylcarbamoyl)amino)-N-3-isoxazolyl-3-pyridinesulfonamide] showed a pIC50 of 7.30.
Molecule `CNC(=O)N(c1ccc(S(=O)(=O)Nc2ccon2)cn1)c1cc(F)c(-c2ccc(F)c(Cl)c2)cc1OC` [Example 1-21, 6-((3′-chloro-2,4′-difluoro-5-methoxy-4-biphenylyl)(methylcarbamoyl)amino)-N-3-isoxazolyl-3-pyridinesulfonamide] has a pIC50 of 7.43.
Molecule `CNC(=O)N(c1ccc(S(=O)(=O)Nc2ccon2)cn1)c1cc(F)c(-c2ccc(F)c(F)c2)cc1OC` [Example 1-22, N-3-isoxazolyl-6-((methylcarbamoyl)(2,3′,4′-trifluoro-5-methoxy-4-biphenylyl)amino)-3-pyridinesulfonamide] has a pIC50 of 6.70.
